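Five concentrations, 48 hours, 96-well plates. GI50 = concentration required for 50% inhibition of growth.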 Calls of active or inactive are those of the source. Cut-off read from the data, not from the text of the source: active = GI50 up to about 1.1 µM and inactive = higher.
How the values were obtained:
Assay in all cases: DTP human tumour cell line panel, 48 h
T47D = tested on: T47D
SK-OV-3 = tested on: SK-OV-3
CAKI-1 = tested on: CAKI-1
NCI-H522 = tested on: NCI-H522
A549 = tested on: A549
HCT-15 = tested on: HCT-15
RXF 393 = tested on: RXF 393
DMS-273 = tested on: DMS-273
BT-549 = tested on: BT-549
NCI-H226 = tested on: NCI-H226
SF-268 = tested on: SF-268
LOX IMVI = tested on: LOX IMVI
ACHN = tested on: ACHN
OVCAR-5 = tested on: OVCAR-5
UACC-62 = tested on: UACC-62
Hs-578T = tested on: Hs-578T
MDA-MB-435 = tested on: MDA-MB-435
KM12 = tested on: KM12
SK-MEL-2 = tested on: SK-MEL-2
K562 = tested on: K562

| Structure (SMILES) | GI50 (T47D) | GI50 (SK-OV-3) | GI50 (CAKI-1) | GI50 (NCI-H522) | GI50 (A549) | GI50 (HCT-15) [nM] | GI50 (RXF 393) | GI50 (DMS-273) | GI50 (BT-549) | GI50 (NCI-H226) | GI50 (SF-268) | GI50 (LOX IMVI) | GI50 (ACHN) | GI50 (OVCAR-5) | GI50 (UACC-62) | GI50 (Hs-578T) | GI50 (MDA-MB-435) | GI50 (KM12) | GI50 (SK-MEL-2) | GI50 (K562) |
| --- | --- | --- | --- | --- | --- | --- | --- | --- | --- | --- | --- | --- | --- | --- | --- | --- | --- | --- | --- | --- |
| CN(C)CCN1C(=O)c2cccc3cc([N+](=O)[O-])cc(c23)C1=O [MITONAFIDE] | 601 nM (active) | 198 nM (active) | 153 nM (active) | 281 nM (active) | 71.6 nM (active) | 290 | 337 nM (active) | 51.4 nM (active) | 904 nM (active) | 78.9 nM (active) | 324 nM (active) | 192 nM (active) | 76.2 nM (active) | 762 nM (active) | 247 nM (active) | 1040 nM (active) | 1750 nM (inactive) | 321 nM (active) | 1370 nM (inactive) | 1560 nM (inactive) |
| NC(CSC(c1ccccc1)(c1ccccc1)c1ccccc1)C(=O)O (stereo not drawn) | 684 nM (active) | 634 nM (active) | 4410 nM (inactive) | 590 nM (active) | 822 nM (active) | 925 | – | 235 nM (active) | 975 nM (active) | 3590 nM (inactive) | 1270 nM (inactive) | 802 nM (active) | 7890 nM (inactive) | 15400 nM (inactive) | 685 nM (active) | 1610 nM (inactive) | 333 nM (active) | 962 nM (active) | 605 nM (active) | 509 nM (active) |
| O=S(=O)(c1ccccc1)C1CN(Cc2ccccc2)CCN(Cc2ccccc2)C1 | 30000 nM (inactive) | > 71600 nM (inactive) | 24400 nM (inactive) | 8000 nM (inactive) | 39700 nM (inactive) | 25000 | 10400 nM (inactive) | 12700 nM (inactive) | 80500 nM (inactive) | > 53600 nM (inactive) | 29400 nM (inactive) | 6250 nM (inactive) | 39400 nM (inactive) | > 100000 nM (inactive) | 11400 nM (inactive) | 37200 nM (inactive) | 20900 nM (inactive) | 58300 nM (inactive) | 36800 nM (inactive) | 5970 nM (inactive) |
| COc1ccc(NC(=O)CC(=O)n2nc(-c3ccccc3)c(/N=N/c3ccc(C)cc3)c2-c2ccccc2)cc1 | 36100 nM (inactive) | 16400 nM (inactive) | 55300 nM (inactive) | 29000 nM (inactive) | 44000 nM (inactive) | > 100000 | 19100 nM (inactive) | 33300 nM (inactive) | 21200 nM (inactive) | 21700 nM (inactive) | 21600 nM (inactive) | 38800 nM (inactive) | 32500 nM (inactive) | > 80000 nM (inactive) | 27900 nM (inactive) | 16600 nM (inactive) | > 100000 nM (inactive) | 65600 nM (inactive) | 32700 nM (inactive) | > 85300 nM (inactive) |
| COC1C(O)C(C)OC(OC2C(Oc3cccc4c(O)c5c(=O)oc6ccc(C)c7c(=O)oc(c34)c5c67)OC(C)C(O)C2O)C1O (stereo not drawn) | 968 nM (active) | 4370 nM (inactive) | – | 871 nM (active) | 6140 nM (inactive) | 3030 | 1340 nM (inactive) | 2100 nM (inactive) | 1900 nM (inactive) | 1350 nM (inactive) | 904 nM (active) | 1140 nM (inactive) | 4980 nM (inactive) | 4560 nM (inactive) | 1170 nM (inactive) | 2380 nM (inactive) | 2070 nM (inactive) | 1640 nM (inactive) | 1030 nM (active) | 804 nM (active) |

Reference: ChEMBL document CHEMBL1201862, “PubChem BioAssay data set” (2004)
